Assay results reported in ChEMBL document CHEMBL1201862, “PubChem BioAssay data set” (2004).
Calls of active or inactive are those of the source. No rule for the calls is given here.

Assays:
Exodeoxyribonuclease V = target: T1, Exodeoxyribonuclease V (Escherichia coli (strain K12), UniProt P04993+P07648+P08394); experiment: E. coli RecBCD inhibitors, dose response, counter-screen for AddAB inhibitor project, absorbance, V66 E. coli, mutant T4 phage (AID 492957); type: functional, cell-based, Escherichia coli str. K-12 substr. MG1655
T1 sequence (P04993 whole entry): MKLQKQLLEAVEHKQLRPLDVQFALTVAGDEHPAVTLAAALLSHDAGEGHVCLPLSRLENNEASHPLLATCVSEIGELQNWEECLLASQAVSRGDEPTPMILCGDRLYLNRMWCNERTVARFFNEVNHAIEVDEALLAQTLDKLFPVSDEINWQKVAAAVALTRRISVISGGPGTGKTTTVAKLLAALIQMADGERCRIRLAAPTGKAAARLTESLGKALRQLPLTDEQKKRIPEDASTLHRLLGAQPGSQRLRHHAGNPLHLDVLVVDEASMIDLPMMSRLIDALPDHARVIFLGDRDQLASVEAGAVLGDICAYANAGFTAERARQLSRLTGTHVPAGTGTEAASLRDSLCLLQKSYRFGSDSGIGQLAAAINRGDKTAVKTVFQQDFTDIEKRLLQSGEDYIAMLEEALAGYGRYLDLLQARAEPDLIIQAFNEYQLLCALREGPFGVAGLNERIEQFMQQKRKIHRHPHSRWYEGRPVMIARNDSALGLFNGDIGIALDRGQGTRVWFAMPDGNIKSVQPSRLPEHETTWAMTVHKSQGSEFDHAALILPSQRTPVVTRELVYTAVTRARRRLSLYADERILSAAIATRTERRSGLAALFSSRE
T1 sequence (P07648 whole entry): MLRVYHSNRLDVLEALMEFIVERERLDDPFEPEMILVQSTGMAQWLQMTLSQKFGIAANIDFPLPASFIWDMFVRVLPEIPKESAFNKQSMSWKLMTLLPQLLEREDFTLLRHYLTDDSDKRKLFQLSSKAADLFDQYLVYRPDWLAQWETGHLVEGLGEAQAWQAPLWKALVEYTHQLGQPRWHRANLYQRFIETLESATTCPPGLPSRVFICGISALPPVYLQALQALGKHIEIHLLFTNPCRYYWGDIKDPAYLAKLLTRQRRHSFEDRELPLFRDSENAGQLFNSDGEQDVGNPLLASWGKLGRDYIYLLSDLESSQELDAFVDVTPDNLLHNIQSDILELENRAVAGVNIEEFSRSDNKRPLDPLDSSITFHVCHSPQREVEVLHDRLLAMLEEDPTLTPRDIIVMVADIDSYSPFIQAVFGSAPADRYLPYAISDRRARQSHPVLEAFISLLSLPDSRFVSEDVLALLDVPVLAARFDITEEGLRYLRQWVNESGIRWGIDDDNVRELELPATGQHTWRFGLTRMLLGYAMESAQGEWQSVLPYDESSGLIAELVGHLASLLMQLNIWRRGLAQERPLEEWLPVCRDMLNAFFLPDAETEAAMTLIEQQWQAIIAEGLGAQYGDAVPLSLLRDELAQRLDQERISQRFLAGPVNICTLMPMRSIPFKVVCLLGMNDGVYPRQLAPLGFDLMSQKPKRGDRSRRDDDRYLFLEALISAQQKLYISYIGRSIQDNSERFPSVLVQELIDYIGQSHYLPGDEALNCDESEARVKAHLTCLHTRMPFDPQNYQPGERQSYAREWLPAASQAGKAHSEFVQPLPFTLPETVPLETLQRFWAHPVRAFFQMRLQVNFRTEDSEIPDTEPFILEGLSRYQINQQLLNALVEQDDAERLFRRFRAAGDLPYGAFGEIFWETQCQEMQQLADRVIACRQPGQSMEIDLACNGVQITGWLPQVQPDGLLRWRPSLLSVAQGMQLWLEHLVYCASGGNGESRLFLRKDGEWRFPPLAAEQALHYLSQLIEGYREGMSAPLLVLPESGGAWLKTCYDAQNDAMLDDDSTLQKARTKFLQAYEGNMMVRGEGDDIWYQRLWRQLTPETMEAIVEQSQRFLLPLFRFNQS
T1 sequence (P08394 whole entry): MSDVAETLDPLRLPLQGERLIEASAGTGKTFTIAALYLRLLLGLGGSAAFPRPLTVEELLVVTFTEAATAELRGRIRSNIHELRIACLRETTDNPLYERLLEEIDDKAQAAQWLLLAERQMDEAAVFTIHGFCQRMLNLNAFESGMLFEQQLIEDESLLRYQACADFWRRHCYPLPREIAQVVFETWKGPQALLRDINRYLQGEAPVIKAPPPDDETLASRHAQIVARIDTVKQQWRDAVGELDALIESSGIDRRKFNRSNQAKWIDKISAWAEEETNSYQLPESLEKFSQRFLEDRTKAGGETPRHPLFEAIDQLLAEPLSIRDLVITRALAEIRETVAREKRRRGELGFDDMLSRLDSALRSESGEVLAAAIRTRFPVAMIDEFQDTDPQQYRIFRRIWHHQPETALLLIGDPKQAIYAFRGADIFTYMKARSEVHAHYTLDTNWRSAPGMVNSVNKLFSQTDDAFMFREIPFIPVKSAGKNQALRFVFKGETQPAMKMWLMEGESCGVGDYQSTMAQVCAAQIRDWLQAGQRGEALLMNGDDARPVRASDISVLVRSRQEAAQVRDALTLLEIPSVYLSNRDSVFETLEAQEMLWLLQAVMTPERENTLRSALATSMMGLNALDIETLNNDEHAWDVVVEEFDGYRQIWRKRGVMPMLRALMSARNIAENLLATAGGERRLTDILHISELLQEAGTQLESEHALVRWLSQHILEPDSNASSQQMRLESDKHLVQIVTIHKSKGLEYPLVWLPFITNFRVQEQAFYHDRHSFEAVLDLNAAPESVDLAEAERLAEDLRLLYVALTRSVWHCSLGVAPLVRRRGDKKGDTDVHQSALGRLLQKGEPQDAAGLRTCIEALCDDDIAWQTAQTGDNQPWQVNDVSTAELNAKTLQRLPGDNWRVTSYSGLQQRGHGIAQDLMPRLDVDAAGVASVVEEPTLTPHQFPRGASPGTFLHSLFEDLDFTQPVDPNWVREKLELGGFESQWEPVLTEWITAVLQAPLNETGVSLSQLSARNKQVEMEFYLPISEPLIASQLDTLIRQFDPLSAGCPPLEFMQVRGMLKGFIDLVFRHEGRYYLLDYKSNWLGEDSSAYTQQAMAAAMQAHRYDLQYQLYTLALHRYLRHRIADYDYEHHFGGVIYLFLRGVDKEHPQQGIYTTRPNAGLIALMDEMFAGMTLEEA

[1] = Counterscreen for AddAB inhibitors: absorbance-based bacterial cell-based high throughput dose response assay for inhibitors of bacterial viability. [Related pubchem assays (depositor defined):AID435030, AID449728, AID449731, AID488942, AID488955, AID488956]; type: functional

SMILES	IC50 (Exodeoxyribonuclease V)	IC50 [1]
COc1ccc(C(NC(=O)C(C)C)c2ccc3cccnc3c2O)cc1 (centres undefined)	> 119 µM (inactive)	> 119 µM (inactive)
O=C(Cc1ccc([N+](=O)[O-])cc1)N/N=C/c1ccc([N+](=O)[O-])o1	> 39.5 µM (inactive)	16.6 µM (inactive)
